Reference: patent US5661175A, “Hemiasterlin and geodiamolide TA” (priority 1995, dated 1997)
Converted amounts (≈) assume the structure as drawn.

What was measured:
A-549 = assay: Antitumor cell screening, A-549 growth inhibition (Crystal Violet); assay type: cell-based; details: Homo sapiens, 72 h; A549; three days incubation at 37° C.; approximate IC50
Procedure: (§1) Cells were maintained in logarithmic phase of growth in Eagle's Minimum Essential Medium, with Earle's Balanced Salts, with 2.0 mM L-Glutamine, with non-essential Amino Acids, without Sodium Bicarbonate (EMEM/NEAA); supplemented with 10% Fetal Calf Serum (FCS), 10^-2M Sodium Bicarbonate and 0.1 g/l Penicillin-G+Streptomycin Sulfate.
(§2) A simple screening procedure has been carried out to determine and compare the antitumor activity of these compounds, using an adapted form of the method described by Bergeron et al. (1984). The antitumor cell employed have been P-388 (suspension culture of a lymphoid neoplasm from DBA/2 mouse), A-549 (monolayer culture of a human lung carcinoma), HT-29 (monolayer culture of a human colon carcinoma) and MEL-28 (monolayer culture of a human melanoma).
(§3) A-549, HT-29 and MEL-28 were seeded into 16 mm wells at 2×10^4 cells per well in 1 ml aliquots of MEM 10FCS containing the indicated concentration of drug. A separate set of cultures without drug was seeded as control growth to ensure that cells remained in exponential phase of growth. All determinations were carried out in duplicate. After three days of incubation at 37° C., 10% CO2 in a 98% humid atmosphere, the wells were stained with 0.1% Crystal Violet. An approximately IC50 was determined by comparing the growth in wells with drug to the growth in wells control.

MEL-28 = assay: Antitumor cell screening, MEL-28 growth inhibition (Crystal Violet); assay type: cell-based; details: Homo sapiens, SK-MEL-28, 72 h; MEL28; three days incubation at 37° C.; approximate IC50
Procedure: as §1, §2, §3

P-388 = assay: Antitumor cell screening, P-388 growth inhibition; assay type: cell-based, DBA/2 mouse; details: Mus musculus, 72 h; P388; three days incubation at 37° C.; approximate IC50
Procedure: as §1, §2
as §3, with “P-388 cells” for “A-549, HT-29 and MEL-28”, “1×10^4” for “2×10^4”, “5FCS” for “10FCS”, “an” for “the wells were stained with 0.1% Crystal Violet. An”

HT-29 = assay: Antitumor cell screening, HT-29 growth inhibition (Crystal Violet); assay type: cell-based; details: Homo sapiens, HT-29, 72 h; HT29; three days incubation at 37° C.; approximate IC50
Procedure: as §1, §2, §3

`C/C1=C\C(C)CC(C)OC(=O)C(C(C)C)NC(=O)C(Cc2ccc(O)c(I)c2)N(C)C(=O)C(C)NC(=O)C(C)C1` (stereo not shown) [Compound 3, geodiamolide TA] gave an IC50 (A-549) of 0.01 µg/mL (≈ 0.0149 µM), an IC50 (MEL-28) of 0.01 µg/mL (≈ 0.0149 µM) and an IC50 (P-388) of 0.01 µg/mL (≈ 0.0149 µM). The IC50 (HT-29) was 0.005 µg/mL (≈ 0.00747 µM).
